Assay [1] concerns the target T1, MexG-HAWA (Pseudomonas aeruginosa, UniProt Q9HWH6, H95A/W98A).
T1 sequence (Q9HWH6 1-148 H95A/W98A): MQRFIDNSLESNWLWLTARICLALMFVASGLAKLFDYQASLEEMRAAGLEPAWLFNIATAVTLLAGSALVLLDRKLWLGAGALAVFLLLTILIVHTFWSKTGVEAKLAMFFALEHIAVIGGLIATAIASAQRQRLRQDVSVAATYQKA
The experiment in a line: intrinsic tryptophan fluorescence quenching. It is filed as binding.

Assay [2] deals with MexG (Pseudomonas aeruginosa, UniProt Q9HWH6). The experiment in a line: intrinsic tryptophan fluorescence quenching. It is filed as binding.

For orientation: Kd means the constant that tells how readily two partners part at equilibrium. A lower Kd goes with higher affinity. `Cn1c2cccc(=O)c-2nc2ccccc21` [pyocyanin]: the Kd was roughly 7 µM in assay [1] and roughly 0.6 µM in assay [2].
